# Source: patent US9226916B2, “Pyrrolidine derivatives” (HOFFMANN-LA ROCHE INC., priority 2009, dated 2016)
# Target: T1, recombinant human NK3 receptor (Homo sapiens, UniProt P29371)
# T1 construct: expressed in transfected cells; host or cells: HEK293 cells, transient expression; membranes
# T1 sequence (P29371 1-465): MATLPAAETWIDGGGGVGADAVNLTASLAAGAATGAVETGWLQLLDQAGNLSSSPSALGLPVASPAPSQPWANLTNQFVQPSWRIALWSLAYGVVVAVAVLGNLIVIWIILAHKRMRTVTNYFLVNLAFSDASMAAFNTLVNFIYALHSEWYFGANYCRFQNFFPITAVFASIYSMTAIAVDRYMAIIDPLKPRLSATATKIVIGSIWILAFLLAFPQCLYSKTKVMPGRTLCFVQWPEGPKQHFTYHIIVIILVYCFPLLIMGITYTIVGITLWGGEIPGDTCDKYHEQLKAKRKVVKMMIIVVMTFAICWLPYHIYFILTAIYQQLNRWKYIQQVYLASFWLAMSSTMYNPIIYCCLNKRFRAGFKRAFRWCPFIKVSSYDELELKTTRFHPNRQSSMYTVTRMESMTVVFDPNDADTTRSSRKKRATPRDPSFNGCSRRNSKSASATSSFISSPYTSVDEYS
# Assay: [3H]SR142801 competition binding assay
row,Structure (SMILES),Ki
1,"CN(C(=O)Oc1ccc(F)cc1)[C@@H]1CN(C(=O)C2CCN(C(=O)c3ccc(C(F)(F)F)cn3)CC2)C[C@H]1c1ccc(Cl)cc1 [Example 261, {(3S,4R)-4-(4-Chloro-phenyl)-1-[1-(5-trifluoromethyl-pyridine-2-carbonyl)-piperidine-4-carbonyl]-pyrrolidin-3-yl}-methyl-carbamic acid 4-fluoro-phenyl ester]",18.9 nM
2,"CN(C(=O)Oc1ccc(F)cc1)[C@@H]1CN(C(=O)C2CCN(C(=O)c3ccc(F)cn3)CC2)C[C@H]1c1ccc(Cl)cc1 [Example 262, {(3S,4R)-4-(4-Chloro-phenyl)-1-[1-(5-fluoro-pyridine-2-carbonyl)-piperidine-4-carbonyl]-pyrrolidin-3-yl}-methyl-carbamic acid 4-fluoro-phenyl ester]",3.9 nM
3,"CN(C(=O)Oc1ccc(F)cc1)[C@@H]1CN(C(=O)C2CCN(C(=O)C3CCC(=O)NC3)CC2)C[C@H]1c1ccc(Cl)cc1 (stereo partly drawn) [Example 263, {(3S,4R)-4-(4-Chloro-phenyl)-1-[1-(6-oxo-piperidine-3-carbonyl)-piperidine-4-carbonyl]-pyrrolidin-3-yl}-methyl-carbamic acid 4-fluoro-phenyl ester]",15.1 nM
4,"CC(C)N1CC(C(=O)N2CCC(C(=O)N3C[C@@H](N(C)C(=O)Oc4ccc(F)cc4)[C@H](c4ccc(Cl)cc4)C3)CC2)CCC1=O (stereo partly drawn) [Example 264, {(3S,4R)-4-(4-Chloro-phenyl)-1-[1-(1-isopropyl-6-oxo-piperidine-3-carbonyl)-piperidine-4-carbonyl]-pyrrolidin-3-yl}-methyl-carbamic acid 4-fluoro-phenyl ester]",8.8 nM
5,"CN(C(=O)Oc1ccc(F)cc1)[C@@H]1CN(C(=O)C2CCN(C(=O)C3CCC3)CC2)C[C@H]1c1ccc(Cl)c(Cl)c1 [Example 265, [(3S,4R)-1-(1-Cyclobutanecarbonyl-piperidine-4-carbonyl)-4-(3,4-dichloro-phenyl)-pyrrolidin-3-yl]-methyl-carbamic acid 4-fluoro-phenyl ester]",0.6 nM
6,"CN(C(=O)Oc1ccc(F)cc1)[C@@H]1CN(C(=O)C2CCN(C(=O)C3(C)COC3)CC2)C[C@H]1c1ccc(Cl)c(Cl)c1 [Example 266, {(3S,4R)-4-(3,4-Dichloro-phenyl)-1-[1-(3-methyl-oxetane-3-carbonyl)-piperidine-4-carbonyl]-pyrrolidin-3-yl}-methyl-carbamic acid 4-fluoro-phenyl ester]",0.5 nM
7,"CN(C(=O)Oc1ccc(F)cc1)[C@@H]1CN(C(=O)C2CCN(C(=O)C3CC(F)C3)CC2)C[C@H]1c1ccc(Cl)c(Cl)c1 (stereo partly drawn) [Example 267, {(3S,4R)-4-(3,4-Dichloro-phenyl)-1-[1-(3-fluoro-cyclobutanecarbonyl)-piperidine-4-carbonyl]-pyrrolidin-3-yl}-methyl-carbamic acid 4-fluoro-phenyl ester]",0.7 nM
8,"CN(C(=O)Oc1ccc(F)cc1)[C@@H]1CN(C(=O)C2CCN(C(=O)C3CC(F)(F)C3)CC2)C[C@H]1c1ccc(Cl)c(Cl)c1 [Example 268, {(3S,4R)-4-(3,4-Dichloro-phenyl)-1-[1-(3,3-difluoro-cyclobutanecarbonyl)-piperidine-4-carbonyl]-pyrrolidin-3-yl}-methyl-carbamic acid 4-fluoro-phenyl ester]",0.6 nM
9,"COC1CC(C(=O)N2CCC(C(=O)N3C[C@@H](N(C)C(=O)Oc4ccc(F)cc4)[C@H](c4ccc(Cl)c(Cl)c4)C3)CC2)C1 (stereo partly drawn) [Example 269, {(3S,4R)-4-(3,4-Dichloro-phenyl)-1-[1-(3-methoxy-cyclobutanecarbonyl)-piperidine-4-carbonyl]-pyrrolidin-3-yl}-methyl-carbamic acid 4-fluoro-phenyl ester]",0.5 nM
10,"CN(C(=O)Oc1ccc(F)cc1)[C@@H]1CN(C(=O)C2CCN(C(=O)C3(C(F)(F)F)CCC3)CC2)C[C@H]1c1ccc(Cl)c(Cl)c1 [Example 270, {(3S,4R)-4-(3,4-Dichloro-phenyl)-1-[1-(1-trifluoromethyl-cyclobutanecarbonyl)-piperidine-4-carbonyl]-pyrrolidin-3-yl}-methyl-carbamic acid 4-fluoro-phenyl ester]",0.6 nM
